# In article doi:10.1101/2024.11.24.625011v1 (biorxiv, 2024):
# Molecular target: T1, RetSDISMED2 (PaRetSp); RetS (residues 41-185) (Pseudomonas aeruginosa, UniProt Q9HUV7)
# T1 sequence (Q9HUV7 41-185): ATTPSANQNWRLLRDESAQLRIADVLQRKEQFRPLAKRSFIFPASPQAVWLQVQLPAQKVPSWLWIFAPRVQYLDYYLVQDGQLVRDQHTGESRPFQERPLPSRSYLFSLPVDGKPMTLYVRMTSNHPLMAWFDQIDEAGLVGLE
# Assay: isothermal titration calorimetry
# Format: binding
smiles,measurement,value
CCCCc1oc2ccc(NS(C)(=O)=O)cc2c1C(=O)c1ccc(OCCCN(CCCC)CCCC)cc1 [dronedarone],Kd,~3.6 µM
NC[C@H](O)c1ccc(O)c(O)c1 [norepinephrine],Kd,~1 µM
